These results are taken from PubChem BioAssay AID1963959 (Molecular Pharmacology Branch, DTP, NCI, 2024).

Values joined by “and” are separate entries in the source; they are usually repeats but may differ in a detail not shown here. Equal values may be shown once. Bounds are passed on as bounds.

Broadly, the IC50 is the point on the concentration scale where inhibition reaches its midpoint. One may read the viability, T/C as the ratio of treated to control.

The assay relates to T-47D spheroids with HUVEC/MSC, viability. The assay is described as follows: Anticancer human tumor T-47D cell line growth inhibition [PI3K].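 On all read-outs here: spheroids exposed to agents for seven days before reading.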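 On viability, T/C: percent of DMSO vehicle control luminescence so 100% = untreated growth.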 The conditions noted are these: for viability, T/C: stronger effect = lower value. The essentials: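 Stroma-containing spheroids: tumor line, pooled-donor HUVEC, hMSC. Treatments: targeted agents with PI3K inhibitors. Dosing: clinically relevant, half-log spacing, 10 microM ceiling without known Cmax. Read-out: cell viability.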

`CC(Cn1ccc(-c2ccc(C#N)c(Cl)c2)n1)NC(=O)c1cc(C(C)O)[nH]n1` (stereo unspecified) + CC(Nc1ncnc2nc[nH]c12)c1cc2cccc(Cl)c2c(=O)n1-c1ccccc1: the IC50 (curve of first compound, second compound 0.0316 µM) is greater than 10 µM; the IC50 (curve of first compound, second compound 0.1 µM) was greater than 10 µM; the IC50 (curve of first compound, second compound 0.316 µM) was greater than 10 µM; the half-inhibitory concentration (IC50) (curve of first compound, second compound 1 µM) was greater than 10 µM; the IC50 (curve of first compound, second compound 3.16 µM) is greater than 10 µM; the half-maximal inhibitory concentration (IC50) (curve of first compound, second compound 10 µM) was greater than 10 µM. In addition, the viability, T/C (second compound 0.0316 µM, first compound 0.0316 µM) was 83.6%; the viability, T/C (second compound 0.0316 µM, first compound 0.1 µM) was 76.1%; the viability, T/C (second compound 0.0316 µM, first compound 0.316 µM) is 87.8%; the viability, T/C (second compound 0.0316 µM, first compound 1 µM) is 90%; the viability, T/C (second compound 0.0316 µM, first compound 3.16 µM) is 86.2%; the viability, T/C (second compound 0.0316 µM, first compound 10 µM) is 51%. In addition, the viability, T/C is 93.1% (second compound 0.1 µM, first compound 0.0316 µM); 80% (second compound 0.1 µM, first compound 0.1 µM); 75.7% (second compound 0.1 µM, first compound 0.316 µM); 82.3% (second compound 0.1 µM, first compound 1 µM); 85.6% (second compound 0.1 µM, first compound 3.16 µM); 54.9% (second compound 0.1 µM, first compound 10 µM). For the same compound, the viability, T/C (second compound 0.316 µM, first compound 0.0316 µM) is 90.7%; the viability, T/C (second compound 0.316 µM, first compound 0.1 µM) is 107%; the viability, T/C (second compound 0.316 µM, first compound 0.316 µM) is 86.4%; the viability, T/C (second compound 0.316 µM, first compound 1 µM) was 87.5%; the viability, T/C (second compound 0.316 µM, first compound 3.16 µM) is 74.9%; the viability, T/C (second compound 0.316 µM, first compound 10 µM) was 62.1%. The viability, T/C is 80.2% (second compound 1 µM, first compound 0.0316 µM); 77.4% (second compound 1 µM, first compound 0.1 µM); 92.9% (second compound 1 µM, first compound 0.316 µM); 80.9% (second compound 1 µM, first compound 1 µM); 74.4% (second compound 1 µM, first compound 3.16 µM); 64% (second compound 1 µM, first compound 10 µM). Moreover, the viability, T/C is 84.5% (second compound 3.16 µM, first compound 0.0316 µM); 86.5% (second compound 3.16 µM, first compound 0.1 µM); 87.7% (second compound 3.16 µM, first compound 0.316 µM); 85.7% (second compound 3.16 µM, first compound 1 µM); 81.4% (second compound 3.16 µM, first compound 3.16 µM); 52.4% (second compound 3.16 µM, first compound 10 µM). The viability, T/C runs as follows: (second compound 10 µM, first compound 0.0316 µM) 80.7%; (second compound 10 µM, first compound 0.1 µM) 84.3%; (second compound 10 µM, first compound 0.316 µM) 75.2%; (second compound 10 µM, first compound 1 µM) 80.1%; (second compound 10 µM, first compound 3.16 µM) 72.2%; (second compound 10 µM, first compound 10 µM) 56.4%.

Consider `CC1(C)CCC(CN2CCN(c3ccc(C(=O)NS(=O)(=O)c4ccc(NCC5CCOCC5)c([N+](=O)[O-])c4)c(Oc4cnc5[nH]ccc5c4)c3)CC2)=C(c2ccc(Cl)cc2)C1`, for which the viability, T/C reads like this: (compound 0.0316 µM) 93.2% [middle of 4 runs]; (compound 0.1 µM) 99% [middle of 4 runs]; (compound 0.316 µM) 99% and 91.9% and 111% (2×). In addition, the IC50 (curve of compound) was greater than 10 µM.
